Measured values taken from patent US8658794B2, “8-methyl-1-phenyl-imidazol[1,5-a]pyrazine compounds as Lck inhibitors and uses thereof” (Merck Sharp & Dohme B.V., priority 2010, dated 2014).

Target: T1, N-terminal His6-tagged recombinant full-length human Lck (Homo sapiens, UniProt P06239)
T1 construct: N-terminal His6-tagged recombinant full-length human Lck; His6 (N); purchased Millipore
Experiment: Lck IMAP assay
Assay type: biochemical
Conditions: ATP 6 μM (KM,ATP), enzyme pre-incubated with compounds for 60 minutes, values given as bins
Description: Inhibition of kinase activity can be measured using the Immobilized Metal Assay for Phosphochemicals (IMAP) assay. IMAP is a homogeneous fluorescence polarization (FP) assay based on affinity capture of phosphorylated peptide substrates. IMAP uses fluorescein-labeled peptide substrates that, upon phosphorylation by a protein kinase, bind to so-called IMAP nanoparticles, which are derivatized with trivalent metal complexes. Binding causes a change in the rate of the molecular motion of the peptide, and results in an increase in the FP value observed for the fluorescein label attached to the substrate peptide (Gaudet et al. A homogeneous fluorescence polarization assay adaptable for a range of protein serine/threonine and tyrosine kinases. J. Biomol. Screen (2003) 8, 164-175).
Enzyme used was N-terminal His6-tagged recombinant full-length human Lck from Millipore. Phosphorylation substrate was a fluorescein-labeled peptide (5FAM-KVEKIGEGTYGVV—NH2) derived from p34cdc2 from Molecular Devices. Enzymes, substrate and ATP were diluted in Kinase Reaction buffer (10 mM Tris-HCl, 10 mM MgCl2, 0.01% Tween-20, 0.05% NaN3 pH 7.2, 1 mM DTT (dithiotreitol). The final volume at the kinase reaction step of the assay in the 384-well plate was 20 μl. Final amount of enzyme in the reaction was 0.1 U/ml. Enzyme was pre-incubated with compounds diluted in 1% DMSO (dimethylsulfoxide) for 60 minutes at room temperature in the dark. Subsequently, peptide substrate to a final concentration of 100 nM, and ATP to a final concentration of 6 μM were added and the mix was incubated for 120 minutes at room temperature in the dark. IMAP progressive binding buffer (75% 1× buffer A, 25% 1× buffer B with 1:600 Progressive Binding Reagent; Molecular Devices) was added, followed by an incubation step of 60 minutes at room temperature in the dark. Finally, the FP signal was read on an Envision Multilabel reader (Perkin Elmer).
All biochemical assays were run at KM,ATP of the enzyme using non-saturated conditions, meaning that during the incubation time it was assured that the signal increase was linear with time. For all biochemical assays a reference standard was used on each plate.
Ten point serial dilutions using a √10 dilution factor were used for dose response testing of compounds. Starting concentration was 10^-6M for Lck IMAP assays. Dose-response curves were run as two experiments on duplicate plates (N=1; n=2). All data was normalized to percentage effect based on maximum (Max) and minimum (Min) control values. On every 384 assay plate 16 wells were used as minimum wells (wells with ATP, 0% effect) and 16 wells were used as maximum wells (wells without ATP, 100% effect). 16 wells were used for measuring the background signal, obtained from a kinase reaction containing all constituents except the labeled peptide substrate. Percentage effect was plotted against log dilution concentration of compound to obtain sigmoid dose response curves. pIC50 values were calculated using ActivityBase.

T1 sequence (P06239 whole entry): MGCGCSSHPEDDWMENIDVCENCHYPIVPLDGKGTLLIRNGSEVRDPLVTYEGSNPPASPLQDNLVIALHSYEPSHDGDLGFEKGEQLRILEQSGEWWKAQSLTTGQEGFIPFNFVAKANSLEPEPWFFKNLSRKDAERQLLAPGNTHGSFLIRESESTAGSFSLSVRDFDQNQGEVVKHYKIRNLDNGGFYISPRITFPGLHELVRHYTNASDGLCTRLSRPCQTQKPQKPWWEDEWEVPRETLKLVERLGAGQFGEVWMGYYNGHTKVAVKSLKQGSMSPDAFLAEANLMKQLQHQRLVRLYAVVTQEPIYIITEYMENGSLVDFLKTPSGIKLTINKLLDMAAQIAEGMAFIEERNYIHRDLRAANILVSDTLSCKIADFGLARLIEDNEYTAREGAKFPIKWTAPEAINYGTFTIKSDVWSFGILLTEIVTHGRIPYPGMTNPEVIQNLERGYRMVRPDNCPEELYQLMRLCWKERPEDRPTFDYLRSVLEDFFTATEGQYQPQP

| SMILES | IC50 [µM] |
| --- | --- |
| CCC[C@H](C)OC(=O)Nc1ccc(-c2nc([C@H]3CC[C@H](N(C)CCOC)CC3)n3ccnc(C)c23)cc1OC [Example 26a, (S)-pentan-2-yl 2-methoxy-4-(3-((trans)-4-((2-methoxyethyl)(methyl)amino)cyclohexyl)-8-methylimidazo[1,5-a]pyrazin-1-yl)phenylcarbamate] | ≤ 0.01 |
| COc1cc(-c2nc(C3CCN(C4CCOCC4)CC3)n3ccnc(C)c23)ccc1NC(=O)c1cc2c(OC)cccc2n1C [Example 30, 4-Methoxy-N-(2-methoxy-4-(8-methyl-3-(1-(tetrahydro-2H-pyran-4-yl)piperidin-4-yl)imidazo[1,5-a]pyrazin-1-yl)phenyl)-1-methyl-1H-indole-2-carboxamide] | ≤ 0.01 |
| COc1cc(-c2nc([C@H]3CC[C@H](N4CC(F)(F)C4)CC3)n3ccnc(C)c23)ccc1N(C)C(=O)OC(C)C [Example 41, Isopropyl 4-(3-((trans)-4-(3,3-difluoroazetidin-1-yl)cyclohexyl)-8-methylimidazo[1,5-a]pyrazin-1-yl)-2-methoxyphenyl(methyl)carbamate] | 0.1 to 1 |
| COc1ccc2[nH]c(C(=O)Nc3ccc(-c4nc(C5CCOCC5)n5ccnc(C)c45)cc3OC)cc2n1 [Example 42, 5-methoxy-N-(2-methoxy-4-(8-methyl-3-(tetrahydro-2H-pyran-4-yl)imidazo[1,5-a]pyrazin-1-yl)phenyl)-1H-pyrrolo[3,2-b]pyridine-2-carboxamide] | 0.01 to 0.1 |
| COc1cc(-c2nc([C@H]3CCN(C4CCOCC4)C3)n3ccnc(C)c23)ccc1NC(=O)c1cc2c(OC)cccc2n1C [Example 36, (S)-4-Methoxy-N-(2-methoxy-4-(8-methyl-3-(1-(tetrahydro-2H-pyran-4-yl)pyrrolidin-3-yl)imidazo[1,5-a]pyrazin-1-yl)phenyl)-1-methyl-1H-indole-2-carboxamide] | 0.01 to 0.1 |
| COc1cc(-c2nc([C@@H]3CCN(CC(=O)N(C)C)C3)n3ccnc(C)c23)ccc1NC(=O)c1cc2c(OC)cccc2n1C [Example 52, (R)—N-(4-(3-(1-(2-(dimethylamino)-2-oxoethyl)pyrrolidin-3-yl)-8-methylimidazo[1,5-a]pyrazin-1-yl)-2-methoxyphenyl)-4-methoxy-1-methyl-1H-indole-2-carboxamide] | 0.01 to 0.1 |
| COc1cc(-c2nc(N3CCOCC3)n3ccnc(C)c23)ccc1NC(=O)c1cc2ccccc2n1C [Example 24, N-(2-methoxy-4-(8-methyl-3-(morholin-4-yl)imidazo[1,5-a]pyrazin-1-yl)phenyl)-1-methyl-1H-indole-2-carboxamide] | ≤ 0.01 |
| COc1cc(-c2nc([C@@H]3CCN(C(=O)CN(C)C)C3)n3ccnc(C)c23)ccc1NC(=O)c1cc2c(OC)cccc2n1C [Example 33e, (R)—N-(4-(3-(1-(2-(dimethylamino)acetyl)pyrrolidin-3-yl)-8-methylimidazo[1,5-a]pyrazin-1-yl)-2-methoxyphenyl)-4-methoxy-1-methyl-1H-indole-2-carboxamide] | ≤ 0.01 |
| COc1cc(-c2nc([C@H]3CC[C@H](N4CCN(C)CC4)CC3)n3ccnc(C)c23)ccc1NC(=O)c1cc2c(OC)cccc2n1C [Example 7, 4-Methoxy-N-(2-methoxy-4-(8-methyl-3-((trans)-4-(4-methylpiperazin-1-yl)cyclohexyl)imidazo[1,5-a]pyrazin-1-yl)phenyl)-1-methyl-1H-indole-2-carboxamide] | ≤ 0.01 |
| COc1cc(-c2nc([C@H]3CC[C@H](N)CC3)n3ccnc(C)c23)ccc1NC(=O)c1cc2c(OC)cccc2n1C [Example 39, N-(4-(3-((trans)-4-aminocyclohexyl)-8-methylimidazo[1,5-a]pyrazin-1-yl)-2-methoxyphenyl)-4-methoxy-1-methyl-1H-indole-2-carboxamide] | ≤ 0.01 |
| COc1cc(-c2nc(C3CN(C4CCOCC4)C3)n3ccnc(C)c23)ccc1NC(=O)c1cc2c(OC)cccc2n1C [Example 16, 4-Methoxy-N-(2-methoxy-4-(8-methyl-3-(1-(tetrahydro-2H-pyran-4-yl)azetidin-3-yl)imidazo[1,5-a]pyrazin-1-yl)phenyl)-1-methyl-1H-indole-2-carboxamide] | 0.01 to 0.1 |
| COc1cc(-c2nc(N3CCn4c(nnc4C(F)(F)F)C3)n3ccnc(C)c23)ccc1NC(=O)c1cc2c(OC)cccc2n1C [Example 37, 4-Methoxy-N-(2-methoxy-4-(8-methyl-3-(3-(trifluoromethyl)-5,6-dihydro-[1,2,4]triazolo[4,3-a]pyrazin-7(8H)-yl)imidazo[1,5-a]pyrazin-1-yl)phenyl)-1-methyl-1H-indole-2-carboxamide] | 0.01 to 0.1 |
| COc1cc(-c2nc(C3CCN(C(N)=O)CC3)n3ccnc(C)c23)ccc1NC(=O)c1cc2c(OC)cccc2n1C [Example 21, N-(4-(3-(1-carbamoylpiperidin-4-yl)-8-methylimidazo[1,5-a]pyrazin-1-yl)-2-methoxyphenyl)-4-methoxy-1-methyl-1H-indole-2-carboxamide] | ≤ 0.01 |

The remaining lines, values ahead:

| IC50 [µM] | SMILES |
| --- | --- |
| ≤ 0.01 | COc1cc(-c2nc([C@H]3CC[C@H](N4CCN(C)C(=O)C4)CC3)n3ccnc(C)c23)ccc1NC(=O)c1cc2c(OC)cccc2n1C [Example 74, 4-Methoxy-N-(2-methoxy-4-(8-methyl-3-((trans)-4-(4-methyl-3-oxopiperazin-1-yl)cyclohexyl)imidazo[1,5-a]pyrazin-1-yl)phenyl)-1-methyl-1H-indole-2-carboxamide] |
| ≤ 0.01 | COc1cc(-c2nc([C@H]3CC[C@H](N4CCN(C)CC4)CC3)n3ccnc(C)c23)ccc1NC(=O)c1cc2cc(Cl)cnc2n1C [Example 67, 5-Chloro-N-(2-methoxy-4-(8-methyl-3-((trans)-4-(4-methylpiperazin-1-yl)cyclohexyl)imidazo[1,5-a]pyrazin-1-yl)phenyl)-1-methyl-1H-pyrrolo[2,3-b]pyridine-2-carboxamide] |
| ≤ 0.01 | CNC[C@H]1CC[C@H](c2nc(-c3ccc(NC(=O)c4cc5c(OC)cccc5n4C)c(OC)c3)c3c(C)nccn32)CC1 [Example 63, 4-Methoxy-N-(2-methoxy-4-(8-methyl-3-((trans)-4-((methylamino)methyl)cyclohexyl)imidazo[1,5-a]pyrazin-1-yl)phenyl)-1-methyl-1H-indole-2-carboxamide] |
| ≤ 0.01 | COc1cc(-c2nc([C@H]3CC[C@H](CNC(C)=O)CC3)n3ccnc(C)c23)ccc1NC(=O)c1cc2c(OC)cccc2n1C [Example 68, N-(4-(3-((trans)-4-(acetamidomethyl)cyclohexyl)-8-methylimidazo[1,5-a]pyrazin-1-yl)-2-methoxyphenyl)-4-methoxy-1-methyl-1H-indole-2-carboxamide] |
| ≤ 0.01 | CCC[C@H](C)OC(=O)Nc1ccc(-c2nc([C@H]3CC[C@H](CN)CC3)n3ccnc(C)c23)cc1OC [Example 60, (S)-Pentan-2-yl 4-(3-((trans)-4-(aminomethyl)cyclohexyl)-8-methylimidazo[1,5-a]pyrazin-1-yl)-2-methoxyphenylcarbamate] |
| ≤ 0.01 | COc1cc(-c2nc([C@@H]3CCN(C(=O)CO)C3)n3ccnc(C)c23)ccc1NC(=O)c1cc2c(OC)cccc2n1C [Example 53, (R)—N-(4-(3-(1-(2-hydroxyacetyl)pyrrolidin-3-yl)-8-methylimidazo[1,5-a]pyrazin-1-yl)-2-methoxyphenyl)-4-methoxy-1-methyl-1H-indole-2-carboxamide] |
| ≤ 0.01 | COc1cc(-c2nc([C@H]3CC[C@H](CN(C)C)CC3)n3ccnc(C)c23)ccc1NC(=O)c1cc2c(OC)cccc2n1C [Example 64, N-(4-(3-((trans)-4-((dimethylamino)methyl)cyclohexyl)-8-methylimidazo[1,5-a]pyrazin-1-yl)-2-methoxyphenyl)-4-methoxy-1-methyl-1H-indole-2-carboxamide] |
| ≤ 0.01 | CCC[C@H](C)OC(=O)Nc1ccc(-c2nc([C@H]3CC[C@H](CNC(=O)OC)CC3)n3ccnc(C)c23)cc1OC [Example 70] |
| ≤ 0.01 | Cc1nccn2c1c(-c1ccc(NC(=O)c3cc4ccccc4n3C)cc1)nc2[C@H]1CC[C@H](N2CCN(C)CC2)CC1 [Example 61, 1-Methyl-N-(4-(8-methyl-3-((trans)-4-(4-methylpiperazin-1-yl)cyclohexyl)imidazo[1,5-a]pyrazin-1-yl)phenyl)-1H-indole-2-carboxamide] |
